We go through 47 compounds from US20120309717A1, “COMPOUNDS, METHODS AND PHARMACEUTICAL COMPOSITIONS FOR INHIBITING PARP” (EISAI INC., priority 2003, published 2012).

Data set [1] concerns the target T1, purified recombinant human PARP (Homo sapiens, UniProt P09874).
T1 construct: purchased Trevigan (Gaithersburg, Md.)
Kind of data set: PARP enzyme assay (IC50). The data set is classed as biochemical. To be noted: approximate values. The method, then: A convenient method to determine IC50 of a PARP inhibitor compound is a PARP assay using purified recombinant human PARP from Trevigan (Gaithersburg, Md.), as follows: The PARP enzyme assay is set up on ice in a volume of 100 microliters consisting of 100 mM Tris-HCl (pH 8.0), 1 mM MgCl2, 28 mM KCl, 28 mM NaCl, 0.1 mg/ml of DNase I activated herring sperm DNA (Sigma, Mo.), 3.0 micromolar [3H]nicotinamide adenine dinucleotide (470 mci/mmole), 7 micrograms/ml PARP enzyme, and various concentrations of the compounds to be tested. The reaction is initiated by incubating the mixture at 25° C. After 15 minutes of incubation, the reaction is terminated by adding 500 microliters of ice cold 20% (w/v) trichloroacetic acid. The precipitate formed is transferred onto a glass fiber filter (Packard Unifilter-GF/B) and washed three times with ethanol. After the filter is dried, the radioactivity is determined by scintillation counting.

For data set [2], the system named is P388D1 cells. Kind of data set: H2O2 induced cell death assay (cytoprotective effect, LDH release). The data set is classed as cell-based, murine. Conditions: Mus musculus, approximate values, concentration for 50% reduction of cell death, 2 mM H2O2, 4 h. The method, then: We used a H2O2 induced cell death assay to determine the cytoprotective effect of PARP inhibitors. P388D1 cells (CCL-46, ATCC), derived from a murine macrophage-like tumor, were maintained in Dulbeco's Modified Eagle Medium (DMEM) with 10% horse serum and 2 mM L-glutamine. The cytotoxicity assay was set up in a 96-well plate. In each well, 190 ul cells were seeded at 2×10^6/ml density. To determine the EC50, the concentration of a compound required to achieve 50% reduction of cell death, a dose response experiment was conducted. PARP inhibitors were added to the media to a final concentration of 0.01, 0.03, 0.1, 0.3, 1, 3, 10, 30 uM. After 15 min incubation with a PARP inhibitor, 5 ul of freshly prepared H2O2 were added to the cells to a final concentration of 2 mM. Cells were returned to 37° C. incubator for 4 h. At the end of incubation, 25 ul of supernatant were sampled from the cell media to determine the level of lactate dehydrogenase (LDH) released from dead cells. The LDH activity was determined by monitoring the rate of decrease of NADH absorbency at 340 nm. The group without drug treatment was used to calculate total cell death due to H2O2 treatment. Each data point was an average of quadruplicate. The EC50 was determined from a dose response curve.

In data set [3] the test system is ischemia and reperfusion of the heart. To be noted: 1 mg/kg; cited from earlier work.

Structures are written as SMILES.

T1 sequence (P09874 whole entry): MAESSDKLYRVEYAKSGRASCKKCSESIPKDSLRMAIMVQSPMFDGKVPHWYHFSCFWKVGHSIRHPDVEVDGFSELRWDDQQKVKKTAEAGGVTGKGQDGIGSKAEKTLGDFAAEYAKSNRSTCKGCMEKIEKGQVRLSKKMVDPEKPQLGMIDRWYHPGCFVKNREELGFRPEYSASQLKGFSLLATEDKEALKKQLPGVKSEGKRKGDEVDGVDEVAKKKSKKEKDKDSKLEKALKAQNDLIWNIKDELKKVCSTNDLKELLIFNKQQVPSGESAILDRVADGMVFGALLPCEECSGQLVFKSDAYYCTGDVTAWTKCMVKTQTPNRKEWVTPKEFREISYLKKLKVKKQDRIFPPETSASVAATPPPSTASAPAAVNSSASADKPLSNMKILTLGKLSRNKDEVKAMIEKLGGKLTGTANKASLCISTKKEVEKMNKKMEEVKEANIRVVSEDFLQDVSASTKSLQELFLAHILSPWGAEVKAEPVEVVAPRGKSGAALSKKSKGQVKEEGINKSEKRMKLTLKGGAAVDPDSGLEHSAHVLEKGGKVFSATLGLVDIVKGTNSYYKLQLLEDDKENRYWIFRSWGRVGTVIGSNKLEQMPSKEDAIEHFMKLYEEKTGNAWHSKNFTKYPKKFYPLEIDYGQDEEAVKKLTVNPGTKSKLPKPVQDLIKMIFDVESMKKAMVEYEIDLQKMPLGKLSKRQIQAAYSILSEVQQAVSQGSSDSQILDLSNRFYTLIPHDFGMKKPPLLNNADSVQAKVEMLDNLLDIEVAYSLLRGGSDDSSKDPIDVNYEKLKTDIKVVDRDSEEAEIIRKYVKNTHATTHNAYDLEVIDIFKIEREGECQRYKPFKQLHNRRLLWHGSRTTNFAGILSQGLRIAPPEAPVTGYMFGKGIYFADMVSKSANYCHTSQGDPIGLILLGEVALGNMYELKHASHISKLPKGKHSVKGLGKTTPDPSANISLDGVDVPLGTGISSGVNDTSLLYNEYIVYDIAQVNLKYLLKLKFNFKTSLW

Consider `NNC(=O)C1=CNc2c(Cl)ccc3c(=O)[nH]nc1c23`, for which the IC50 in data set [1] (Table I) turned out to be 0.749 µM.

Regarding `O=c1[nH]nc2c3c(cccc13)NC=N2`, the IC50 in data set [1] (Table I) amounted to 0.039 µM. The compound further had an EC50 in data set [2] (Table I) of 0.35 µM.

In the case of `NNC(=O)C1=CNc2cccc3c(=O)[nH]nc1c23`, in data set [1] (Table I), the half-inhibitory concentration (IC50) turned out to be 0.014 µM. In data set [2] (Table I), this compound gave an EC50 of 0.1 µM.

Take `NNC(=O)C1=Cc2n[nH]c(=O)c3ccc(NN)c(c23)N1`: the IC50 in data set [1] (Table I) was determined as 2.79 µM.

Consider `NNC(=O)C1=Cc2n[nH]c(=O)c3cccc(c23)N1`, for which the IC50 in data set [1] (Table I) is 0.026 µM. For the same compound, the EC50 in data set [2] (Table I) was found to be 0.51 µM.

With `O=C(O)C1=Cc2n[nH]c(=O)c3cccc(c23)N1`, the IC50 in data set [1] (Table I) was 0.16 µM. Further, a half-maximal response in data set [2] (Table I) (EC50) required 1.7 µM.

On to `NC1=Nc2n[nH]c(=O)c3cccc(c23)N1`, for which the IC50 in data set [1] (Table I) is 0.091 µM. This compound yielded an EC50 in data set [2] (Table I) of 0.64 µM.

In the case of `NNC(=O)C1=Nc2n[nH]c(=O)c3cccc(c23)N1`, the IC50 in data set [1] (Table I) was determined as 0.021 µM. In data set [2] (Table I), this compound yielded an EC50 of 0.24 µM.

Take `CC1=Cc2n[nH]c(=O)c3ccc(Cl)c(c23)N1`: in data set [1] (Table I), the IC50 was found to be 0.12 µM.

Take `O=c1[nH]nc2c3c(cccc13)NC(CO)=N2`: the IC50 in data set [1] (Table I) was determined as 0.026 µM. This compound showed an EC50 in data set [2] (Table I) of 0.36 µM.

Regarding `O=c1[nH]nc2c3c(cccc13)NC(CNCCCc1ccccc1)=N2`, the IC50 in data set [1] (Table I) worked out at 0.087 µM. Besides, the EC50 in data set [2] (Table I) came to 0.01 µM.

With `CN(C)CC1=Nc2n[nH]c(=O)c3cccc(c23)N1`, the IC50 in data set [1] (Table I) came out at 0.019 µM. In data set [2] (Table I), this compound yielded an EC50 of 0.13 µM.

Consider `O=c1[nH]nc2c3c(cccc13)NC(CN1CCCCC1)=N2`, for which the IC50 in data set [1] (Table I) worked out at 0.019 µM. The EC50 in data set [2] (Table I) turned out to be 0.12 µM.

Consider `O=c1[nH]nc2c3c(cccc13)NC(CN1CCCC1)=N2`, for which the IC50 in data set [1] (Table I) worked out at 0.018 µM.

Take `O=c1[nH]nc2c3c(cccc13)N=C(CN1CCOCC1)N2`: in data set [1] (Table I), the IC50 was 0.018 µM.

For `CC(=O)OC(C(=O)O)C(OC(C)=O)C(=O)NCc1ccc2c(c1)-c1n[nH]c(=O)c3cccc(c13)O2` (stereo not shown), the IC50 in data set [1] (Table II) was 0.035 µM. In data set [2] (Table II), this compound registered an EC50 of 2.08 µM.

In the case of `NCc1ccc2c(c1)-c1n[nH]c(=O)c3cccc(c13)O2`, the IC50 in data set [1] (Table II) is 0.019 µM. The EC50 in data set [2] (Table II) worked out at 2.08 µM.

As for `O=c1[nH]nc2c3c(cccc13)Oc1ccc(CN3CCOCC3)cc1-2`, in data set [1] (Table II), the IC50 came to 0.067 µM. Besides, the EC50 in data set [2] (Table II) came to 0.3 µM.

On to `O=C(NCc1ccc2c(c1)-c1n[nH]c(=O)c3cccc(c13)O2)C1CCCN1` (stereo not shown), for which, in data set [1] (Table II), the IC50 worked out at 0.03 µM. In data set [2] (Table II), this compound yielded an EC50 of 0.08 µM.

As to `N=C(N)NCc1ccc2c(c1)-c1n[nH]c(=O)c3cccc(c13)O2`, in data set [1] (Table II), the IC50 is 0.035 µM. This compound registered an EC50 in data set [2] (Table II) of 1 µM.

Regarding `CCN1CCN(Cc2ccc3c(c2)-c2n[nH]c(=O)c4cccc(c24)O3)CC1`, the IC50 in data set [1] (Table II) came out at 0.06 µM. For the same compound, in data set [2] (Table II), the EC50 came to 0.12 µM.

For the compound `O=c1[nH]nc2c3c(cccc13)Oc1ccc(CN3CCN(CCO)CC3)cc1-2`, the IC50 in data set [1] (Table II) amounted to 0.101 µM. It took 0.08 µM to reach a half-maximal effect in data set [2] (Table II) (EC50).

With `O=c1[nH]nc2c3c(cccc13)Oc1ccc(CN3CCN(CCOCCO)CC3)cc1-2`, the IC50 in data set [1] (Table II) was found to be 0.128 µM. Further, in data set [2] (Table II), the EC50 stood at 0.075 µM.

In the case of `NOCc1ccc2c(c1)-c1n[nH]c(=O)c3cccc(c13)O2`, the IC50 in data set [1] (Table II) came to 0.165 µM. In data set [2] (Table II), the response was half-maximal at 0.47 µM (EC50).

With `O=c1[nH]nc2c3c(cccc13)Oc1ccc(CO)cc1-2`, the IC50 in data set [1] (Table II) amounted to 0.092 µM. The compound also displayed an EC50 in data set [2] (Table II) of 0.41 µM.

As to `O=C(CCP(=O)(OCc1ccccc1)OCc1ccccc1)OCc1ccc2c(c1)-c1n[nH]c(=O)c3cccc(c13)O2`, the IC50 in data set [1] (Table II) was 0.413 µM.

As to `O=C(CCl)OCc1ccc2c(c1)-c1n[nH]c(=O)c3cccc(c13)O2`, the IC50 in data set [1] (Table II) stood at 0.177 µM.

Consider `O=C(O)c1ccc2c(c1)-c1n[nH]c(=O)c3cccc(c13)O2`, for which the IC50 in data set [1] (Table II) was 0.167 µM.

As for `CCOP(=O)(NCc1ccc2c(c1)-c1n[nH]c(=O)c3cccc(c13)O2)OCC`, the IC50 in data set [1] (Table II) worked out at 0.275 µM.

On to `O=c1[nH]nc2c3c(cccc13)Oc1ccc(COP(=O)(O)O)cc1-2`, for which the IC50 in data set [1] (Table II) amounted to 0.034 µM. In data set [2] (Table II), this compound registered an EC50 of 0.75 µM.

Regarding `CN(C)c1ccc(/N=N/c2ccc(S(=O)(=O)NCc3ccc4c(c3)-c3n[nH]c(=O)c5cccc(c35)O4)cc2)cc1`, the IC50 in data set [1] (Table II) came out at 1.3 µM.

In the case of `C=COC(=O)c1ccc2c(c1)-c1n[nH]c(=O)c3cccc(c13)O2`, the IC50 in data set [1] (Table II) was determined as 0.089 µM.

Consider `O=c1[nH]nc2c3c(cccc13)Oc1ccc(CN3CCNCC3)cc1-2`, for which, in data set [1] (Table II), the IC50 came to 0.048 µM. It took 0.27 µM to reach a half-maximal effect in data set [2] (Table II) (EC50).

As for `Oc1cccc2c(O)nccc12` [1,5-dihydroxyisoquinoline], in data set [3], the “reduction in infarct size” value is given as 38-48%.

Take `CN(C)CCN(C)Cc1ccc2c(c1)-c1n[nH]c(=O)c3cccc(c13)O2` [10-{[(2-Dimethylamino-ethyl)-methyl-amino]-methyl}-2H-7-oxa-1,2-diaza-benzo[de]anthracen-3-one]: in data set [1] (Table II), the IC50 is 0.1 µM. The same compound had an EC50 in data set [2] (Table II) of 0.17 µM.

The compound `O=c1[nH]nc2c3c(cccc13)Oc1ccc(CN(CCO)CCO)cc1-2` [Compound 47, 10-{[Bis-(2-hydroxy-ethyl)-amino]-methyl}-2H-7-oxa-1,2-diaza-benzo[de]anthracen-3-one] displayed a melting point of 222 to 225 °C.

As for `O=c1[nH]nc2c3c(cccc13)Oc1ccc(CN3CCC(N4CCCC4)CC3)cc1-2` [Compound 48, 10-(4-Pyrrolidin-1-yl-piperidin-1-ylmethyl)-2H-7-oxa-1,2-diaza-benzo[de]anthracen-3-one], the melting point was in the range of 258 to 264 °C.

Compound `O=C(O)C(O)C(O)C(=O)NCc1ccc2c(c1)-c1n[nH]c(=O)c3cccc(c13)O2` (stereo not shown) [Compound 52, 2,3-Dihydroxy-N-(3-oxo-2,3-dihydro-7-oxa-1,2-diaza-benzo[de]anthracen-10-ylmethyl)-succinamic acid] yielded a melting point of 181 to 185 °C.

`CN(C)c1ccc(N=Nc2ccc(S(=O)(=O)NCc3ccc4c(c3)-c3n[nH]c(=O)c5cccc(c35)O4)cc2)cc1` [Compound 55, 4-(4-Dimethylamino-phenylazo)-N-(3-oxo-2,3-dihydro-7-oxa-1,2-diaza-benzo[de]anthracen-10-ylmethyl)-benzenesulfonamide]: the melting point was > 300 °C.

In turn, `CN(C)CC(=O)OCc1ccc2c(c1)-c1n[nH]c(=O)c3cccc(c13)O2` [Compound 59, Dimethylamino-acetic acid 3-oxo-2,3-dihydro-7-oxa-1,2-diaza-benzo[de]anthracen-10-ylmethyl ester] displayed a melting point of 227 to 230 °C.

`O=c1[nH]nc2c3c(cccc13)Oc1ccc(COP(=O)(OCc3ccccc3)OCc3ccccc3)cc1-2` [Compound 60, Phosphoric acid dibenzyl ester 3-oxo-2,3-dihydro-7-oxa-1,2-diaza-benzo[de]anthracen-10-ylmethyl ester] had a melting point of 223 to 225 °C.

Turning to `O=C(O)C(O)C(O)C(=O)NCc1ccc2c(c1)-c1n[nH]c(=O)c3cccc(c13)O2` (stereo not shown) [drawing 41], the IC50 in data set [1] (Table II) is 0.021 µM. This compound also displayed an EC50 in data set [2] (Table II) of 5.27 µM.

As for `CN1CCN(Cc2ccc3c(c2)-c2n[nH]c(=O)c4cccc(c24)O3)CC1` [drawing 46], the IC50 in data set [1] (Table II) is 0.074 µM. In addition, the EC50 in data set [2] (Table II) came out at 0.13 µM.

Turning to `O=c1[nH]nc2c3c(cccc13)Oc1ccc(CN(CCO)CCO)cc1-2` [drawing 52], the IC50 in data set [1] (Table II) is 0.038 µM.

Regarding `CN(C)CC(=O)OCc1ccc2c(c1)-c1n[nH]c(=O)c3cccc(c13)O2` [drawing 54], the IC50 in data set [1] (Table II) worked out at 0.125 µM.

Take `O=c1[nH]nc2c3c(cccc13)Oc1ccc(COP(=O)(OCc3ccccc3)OCc3ccccc3)cc1-2` [drawing 55]: the IC50 in data set [1] (Table II) was determined as 0.086 µM. This compound also had an EC50 in data set [2] (Table II) of 0.52 µM.

Consider `O=c1[nH]nc2c3c(cccc13)Oc1ccc(CN3CCC(N4CCCC4)CC3)cc1-2` [drawing 63], for which the EC50 in data set [2] (Table II) came to 0.3 µM.

Usually IC50 stands for the concentration at which inhibition is half-maximal. The term EC50 denotes the concentration at which the effect is half-maximal. Read a low EC50 as greater potency. A word on the melting point: it is the temperature of the solid-liquid transition.
